Tests used:
[1] = target: T1, KHK (Rattus norvegicus, UniProt Q02974); assay: Oral Fructose Tolerance Test (OFTT) in male Sprague Dawley rats; type: in vivo; settings: 100 mg/kg oral; fructose bolus 2 g/kg 1 hour after compound; blood at 0.5, 1, 2 and 3 hours post challenge; FIG. 1
T1 construct: from tissue; host or cells: whole animal, male Sprague Dawley rats (in vivo)
T1 sequence (Q02974 1-298): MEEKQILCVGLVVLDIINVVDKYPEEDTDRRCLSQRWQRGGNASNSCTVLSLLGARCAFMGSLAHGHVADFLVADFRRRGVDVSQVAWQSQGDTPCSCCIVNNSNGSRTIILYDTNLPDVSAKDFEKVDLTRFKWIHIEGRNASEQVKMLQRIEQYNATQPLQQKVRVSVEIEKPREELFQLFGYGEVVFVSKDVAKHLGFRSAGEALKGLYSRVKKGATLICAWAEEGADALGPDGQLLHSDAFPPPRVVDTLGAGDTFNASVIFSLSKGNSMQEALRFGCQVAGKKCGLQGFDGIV
Method: FIG. 1: Graph showing the change in fructose levels from baseline in the control and Example 2 and 6 treated animals in the OFTT study.
The animals were fasted overnight, basal blood samples collected and a 100 mg/kg dose was orally administered of compounds example 2 or example 6. A fructose bolus (2 g/kg) was then given 1 hour after test compound administration and blood samples collected at 0.5, 1, 2 and 3 hours post fructose challenge. All the blood samples were centrifuged immediately and the separated plasma samples were stored at appropriate temperature for the fructose estimation. Plasma fructose concentration was measured by commercially available EnzyChrome fructose assay kit.

[2] = target: T2, Human Ketohexokinase (KHK-A) (Homo sapiens, UniProt P50053); assay: Transcreener Kinase ADP2 FP assay, inhibition of human KHK-A; type: biochemical; settings: recombinant human KHK-A 17.5 nM, 0.3 mM ATP, 7 mM fructose, 30 min pre-incubation, 60 min at 30° C.
T2 construct: Recombinant Human Ketohexokinase, Met1Val298, with C terminal 6His tag; 6His (C); purchased R&D Systems 8177-HK
T2 sequence (P50053 1-298 isoform P50053-2): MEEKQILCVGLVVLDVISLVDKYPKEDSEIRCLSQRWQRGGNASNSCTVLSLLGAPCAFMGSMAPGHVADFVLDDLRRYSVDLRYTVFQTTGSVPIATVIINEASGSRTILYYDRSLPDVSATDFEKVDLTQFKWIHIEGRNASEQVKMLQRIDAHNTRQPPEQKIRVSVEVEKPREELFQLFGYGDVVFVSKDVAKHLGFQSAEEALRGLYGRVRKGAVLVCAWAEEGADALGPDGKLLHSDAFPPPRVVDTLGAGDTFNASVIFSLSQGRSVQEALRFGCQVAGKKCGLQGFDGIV
Method: The following materials and methods were used, • Enzyme description and source: Recombinant Human Ketohexokinase, Met1Val298, with C terminal 6His tag (R&D Systems, 8177-HK). • Reagents: 200 μM ATP and 100 mM D-(−)-Fructose (Sigma F0127) as substrates. • Enzyme reaction buffer: 25 mM HEPES, 300 mM KCl, 10 mM MgCl2, 10 mM CaCl2, pH 7.0. • Control compound: KHK Inhibitor (Millipore-Sigma 420640) See Maryanoff, B. E., et al. 2011. ACS Med. Chem. Lett. 2, 538. • Assay: Transcreener Kinase ADP2 FP assay as described: https://www.bellbrooklabs.com/products/transcreener-hts-assays/kinase-assays/ • Assay parameters: 12-point dose response (n=2), 3-fold serial dilution, starting at 100 μM
KHK-A was added to the tested compounds (from 10 mM stock solution in 25 mM Tris pH 7.4), to a total volume 5 μl, and pre-incubated for 30 minutes at rt to ensure E*I complex formation. The reaction was then initiated by addition of an equal volume (5 μl) containing ATP and Fructose to give a resulting mix of 17.5 nM KHK-A, 0.3 mM ATP, 7 mM Fructose, 25 mM Tris (pH 7.4), 10 mM MgCl2, 10 mM CaCl2 and 50 mM KCl. Following 60 min at 30° C., reactions were quenched with 10 μl of stop/detect mix (40 mM HEPES (pH 7.5), 80 mM EDTA, 0,04% Brij-35, 8 nM ADP tracer and optimal concentration of ADP2 antibody), The plates were read on a PHERAstar PLUS after 1-hour room temperature equilibration. […]

| IC50 [2] [nM] | SMILES | change in fructose levels from baseline (plasma fructose) versus the control group [1] |
| --- | --- | --- |
| 78 | Cc1c(N2C[C@@H]3[C@H](C2)[C@H]3CS(=O)O)nc(N2CC[C@@H]2C)nc1C(F)(F)F [Example 6, sodium((1R,5S,6S)-3-(5-methyl-2-((S)-2-methylazetidin-1-yl)-6-(trifluoromethyl)pyrimidin-4-yl)-3-azabicyclo[3.1.0]hexan-6-yl)methanesulfinate] | increase of fructose plasma levels |
| 740 | C[C@H]1CCN1c1nc(N2C[C@@H]3[C@H](C2)[C@H]3CS(=O)O)cc(C(F)(F)F)n1 [Example 2, sodium((1R,5S,6S)-3-(2-((S)-2-methylazetidin-1-yl)-6-(trifluoromethyl)pyrimidin-4-yl)-3-azabicyclo[3.1.0]hexan-6-yl)methanesulfinate] | increase of fructose plasma levels |

— patent publication US20230135552A1, “Compounds Useful In Inhibiting Ketohexokinase And Methods Of Making And Using The Same” (Inorbit Therapeutics AB, priority 2020, published 2023)
